≈ marks a conversion by molar mass, not a printed value.
Assays:
Format in all cases: functional
Staphylococcus aureus [1] = assay: Selectivity ratio of MBC for methicillin-resistant Staphylococcus aureus PU 32 harboring i-ermA gene to MIC for methicillin-resistant Staphylococcus aureus PU 32 harboring i-ermA gene
Haemophilus influenzae [2] = assay: Antibacterial activity against Haemophilus influenzae ATCC 49247 incubated for 16 to 20 hrs by CLSI based broth microdilution method; settings: time 16-20 hrs
Streptococcus pyogenes [3] = assay: Bactericidal activity against Streptococcus pyogenes 01-968 harboring i-ermB gene incubated for 16 to 20 hrs by CLSI based broth microdilution method; settings: time 16-20 hrs
Streptococcus pyogenes [4] = assay: Selectivity ratio of MBC for Streptococcus pyogenes 01-968 harboring i-ermB gene to MIC for Streptococcus pyogenes 01-968 harboring i-ermB gene
Streptococcus pneumoniae [5] = assay: Antibacterial activity against Streptococcus pneumoniae 07P390 harboring c-erm gene incubated for 16 to 20 hrs by CLSI based broth microdilution method; settings: time 16-20 hrs
Streptococcus pneumoniae [6] = assay: Selectivity ratio of MBC for Streptococcus pneumoniae ATCC 49619 to MIC for Streptococcus pneumoniae ATCC 49619
Haemophilus influenzae [7] = assay: Bactericidal activity against Haemophilus influenzae ATCC 49247 incubated for 16 to 20 hrs by CLSI based broth microdilution method; settings: time 16-20 hrs
Streptococcus pneumoniae [8] = assay: Selectivity ratio of MBC for Streptococcus pneumoniae PU 09 harboring mef gene to MIC for Streptococcus pneumoniae PU 09 harboring mef gene
Staphylococcus aureus [9] = assay: Bactericidal activity against methicillin-resistant Staphylococcus aureus PU 20 harboring c-ermA gene incubated for 16 to 20 hrs by CLSI based broth microdilution method; settings: time 16-20 hrs
Streptococcus pneumoniae [10] = assay: Antibacterial activity against Streptococcus pneumoniae PU 09 harboring mef gene incubated for 16 to 20 hrs by CLSI based broth microdilution method; settings: time 16-20 hrs
Streptococcus pyogenes [11] = assay: Antibacterial activity against Streptococcus pyogenes 01-968 harboring i-ermB gene incubated for 16 to 20 hrs by CLSI based broth microdilution method; settings: time 16-20 hrs
Streptococcus pneumoniae [12] = assay: Bactericidal activity against Streptococcus pneumoniae ATCC 49619 incubated for 16 to 20 hrs by CLSI based broth microdilution method; settings: time 16-20 hrs
Streptococcus pneumoniae [13] = assay: Bactericidal activity against Streptococcus pneumoniae PU 09 harboring mef gene incubated for 16 to 20 hrs by CLSI based broth microdilution method; settings: time 16-20 hrs
Staphylococcus aureus [14] = assay: Bactericidal activity against methicillin-resistant Staphylococcus aureus PU 32 harboring i-ermA gene incubated for 16 to 20 hrs by CLSI based broth microdilution method; settings: time 16-20 hrs
Staphylococcus aureus [15] = assay: Antibacterial activity against methicillin-resistant Staphylococcus aureus PU 32 harboring i-ermA gene incubated for 16 to 20 hrs by CLSI based broth microdilution method; settings: time 16-20 hrs
Staphylococcus aureus [16] = assay: Antibacterial activity against methicillin-resistant Staphylococcus aureus PU 20 harboring c-ermA gene incubated for 16 to 20 hrs by CLSI based broth microdilution method; settings: time 16-20 hrs
Haemophilus influenzae [17] = assay: Selectivity ratio of MBC for Haemophilus influenzae ATCC 49247 to MIC for Haemophilus influenzae ATCC 49247
Streptococcus pneumoniae [18] = assay: Antibacterial activity against Streptococcus pneumoniae ATCC 49619 incubated for 16 to 20 hrs by CLSI based broth microdilution method; settings: time 16-20 hrs
Streptococcus pneumoniae [19] = assay: Selectivity ratio of MBC for Streptococcus pneumoniae 07P390 harboring c-erm gene to MIC for Streptococcus pneumoniae 07P390 harboring c-erm gene
Streptococcus pneumoniae [20] = assay: Bactericidal activity against Streptococcus pneumoniae 07P390 harboring c-erm gene incubated for 16 to 20 hrs by CLSI based broth microdilution method; settings: time 16-20 hrs

Compound | Selectivity ratio (Staphylococcus aureus [1]) | MIC (Haemophilus influenzae [2]) [µg/mL] | MBC (Streptococcus pyogenes [3]) [µg/mL] | Selectivity ratio (Streptococcus pyogenes [4]) | MIC (Streptococcus pneumoniae [5]) [µg/mL] | Selectivity ratio (Streptococcus pneumoniae [6]) | MBC (Haemophilus influenzae [7]) [µg/mL] | Selectivity ratio (Streptococcus pneumoniae [8]) | MBC (Staphylococcus aureus [9]) [µg/mL] | MIC (Streptococcus pneumoniae [10]) [µg/mL] | MIC (Streptococcus pyogenes [11]) [µg/mL] | MBC (Streptococcus pneumoniae [12]) [µg/mL] | MBC (Streptococcus pneumoniae [13]) [µg/mL] | MBC (Staphylococcus aureus [14]) [µg/mL] | MIC (Staphylococcus aureus [15]) [µg/mL] | MIC (Staphylococcus aureus [16]) [µg/mL] | Selectivity ratio (Haemophilus influenzae [17]) | MIC (Streptococcus pneumoniae [18]) [µg/mL] | Selectivity ratio (Streptococcus pneumoniae [19]) | MBC (Streptococcus pneumoniae [20]) [µg/mL]
CC[C@H]1OC(=O)[C@H](C)[C@@H](OC(=O)CCN2CCN(c3nc4c(cc3F)c(=O)c(C(=O)O)cn4CC)CC2)[C@H](C)[C@@H](O[C@@H]2O[C@H](C)C[C@H](N(C)C)[C@H]2O)[C@](C)(OC)C[C@@H](C)/C(=N\OCC#Cc2cncc(C(=O)NC)c2)[C@H](C)[C@H]2OC(=O)O[C@@]21C | >4 | 32 (≈ 27.2 µM) | > 32 | >8 | 4 (≈ 3.4 µM) | 1 | 32 (≈ 27.2 µM) | 4 | > 256 | 0.06 (≈ 0.051 µM) | 4 (≈ 3.4 µM) | 0.03 (≈ 0.0255 µM) | 0.25 (≈ 0.212 µM) | > 256 | 64 (≈ 54.4 µM) | > 256 | 1 | 0.03 (≈ 0.0255 µM) | >8 | > 32
CC[C@H]1OC(=O)[C@H](C)[C@@H](OC(=O)CCNCCCCNc2cc3c(cc2F)c(=O)c(C(=O)O)cn3C2CC2)[C@H](C)[C@@H](O[C@@H]2O[C@H](C)C[C@H](N(C)C)[C@H]2O)[C@](C)(OC)C[C@@H](C)/C(=N\OCC#Cc2cncc(C(N)=O)c2)[C@H](C)[C@H]2OC(=O)O[C@@]21C | 2 | 2 (≈ 1.7 µM) | > 0.5 | >8 | 0.06 (≈ 0.051 µM) | >=1 | 2 (≈ 1.7 µM) |  | > 256 | ≤ 0.008 | 0.06 (≈ 0.051 µM) | 0.008 (≈ 0.0068 µM) | 0.008 (≈ 0.0068 µM) | 128 (≈ 109 µM) | 64 (≈ 54.4 µM) | 128 (≈ 109 µM) | 1 | ≤ 0.008 | >8 | > 0.5
CC[C@H]1OC(=O)[C@H](C)[C@@H](OC(=O)CCNCCCCNc2cc3c(cc2F)c(=O)c(C(=O)O)cn3C2CC2)[C@H](C)[C@@H](O[C@@H]2O[C@H](C)C[C@H](N(C)C)[C@H]2O)[C@](C)(OC)C[C@@H](C)/C(=N\OCCCc2cncc(C(=O)NC)c2)[C@H](C)[C@H]2OC(=O)O[C@@]21C | 1 | 8 (≈ 6.7 µM) | > 2 | >8 | 0.03 (≈ 0.0251 µM) | >=1 | 16 (≈ 13.4 µM) | >=4 | > 256 | ≤ 0.008 | 0.25 (≈ 0.209 µM) | 0.008 (≈ 0.0067 µM) | 0.03 (≈ 0.0251 µM) | 32 (≈ 26.8 µM) | 32 (≈ 26.8 µM) | > 256 | 2 | ≤ 0.008 | 4 | 0.12 (≈ 0.1 µM)
CC[C@H]1OC(=O)[C@H](C)[C@@H](OC(=O)CCNCCCCNc2cc3c(cc2F)c(=O)c(C(=O)O)cn3C2CC2)[C@H](C)[C@@H](O[C@@H]2O[C@H](C)C[C@H](N(C)C)[C@H]2O)[C@](C)(OC)C[C@@H](C)/C(=N\OC/C=C/c2cncc(C(N)=O)c2)[C@H](C)[C@H]2OC(=O)O[C@@]21C | 1 | 16 (≈ 13.6 µM) | > 2 | >8 | 0.12 (≈ 0.102 µM) | >=1 | 16 (≈ 13.6 µM) |  | > 256 | ≤ 0.008 | 0.25 (≈ 0.212 µM) | 0.008 (≈ 0.00679 µM) | 0.008 (≈ 0.00679 µM) | 32 (≈ 27.2 µM) | 32 (≈ 27.2 µM) | > 256 | 1 | ≤ 0.008 | 2 | 0.25 (≈ 0.212 µM)
CC[C@H]1OC(=O)[C@H](C)[C@@H](OC(=O)CCNCCCCNc2cc3c(cc2F)c(=O)c(C(=O)O)cn3C2CC2)[C@H](C)[C@@H](O[C@@H]2O[C@H](C)C[C@H](N(C)C)[C@H]2O)[C@](C)(OC)C[C@@H](C)/C(=N\OCC#Cc2cncc(C(=O)NC3CC3)c2)[C@H](C)[C@H]2OC(=O)O[C@@]21C | 2 | 8 (≈ 6.58 µM) | > 0.5 | >8 | 0.03 (≈ 0.0247 µM) | >=1 | 8 (≈ 6.58 µM) |  | > 256 | ≤ 0.008 | 0.06 (≈ 0.0493 µM) | 0.008 (≈ 0.00658 µM) | 0.008 (≈ 0.00658 µM) | 64 (≈ 52.6 µM) | 32 (≈ 26.3 µM) | 128 (≈ 105 µM) | 1 | ≤ 0.008 | >8 | > 0.25

Source: ChEMBL document CHEMBL5608186, “Design, synthesis and structure-activity relationships of novel non-ketolides: 9-Oxime clarithromycin featured with seven-to thirteen-atom-length diamine linkers at 3-OH” (Eur J Med Chem, 2024)
